What all share (assay): Kinase inhibitor library screening, PrestoBlue cell viability, 1 or 10 μM, 72 h
Test [1] concerns A375-XP cells (Vemurafenib-resistant). As to conditions: for cell viability (kinase inhibitor library screening): A375 XP, 72 h.
For test [2], the system named is 501Mel-XP cells (Vemurafenib-resistant). As to conditions: for Cell viability in kinase inhibitor library screening, 501Mel XP, 1μΜ / Cell viability in kinase inhibitor library screening, 501Mel XP, 10μΜ: in %; for cell viability (kinase inhibitor library screening): 501Mel XP, 72 h.
Another test concerns 501Mel cells (parental). As to conditions: for Cell viability in kinase inhibitor library screening, 501Mel Parental, 1μΜ / Cell viability in kinase inhibitor library screening, 501Mel Parental, 10μΜ: in %; for cell viability (kinase inhibitor library screening): 501Mel Parental, 72 h. The method in brief:
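Sensitive parental cells and their resistant derivatives were exposed to library compounds for 72 h. Values represent viability as a percentage of untreated cells.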

Test [3] deals with A375-GP cells (Dabrafenib-resistant). As to conditions: for cell viability (kinase inhibitor library screening): A375 GP, 72 h.
Test [4] concerns IGR37-GP cells (Dabrafenib-resistant). As to conditions: for Cell viability in kinase inhibitor library screening, IGR37 GP, 1μΜ: in %.
In test [5] the test system is 501Mel-GP cells (Dabrafenib-resistant). As to conditions: for Cell viability in kinase inhibitor library screening, 501Mel GP, 1μΜ / Cell viability in kinase inhibitor library screening, 501Mel GP, 10μΜ: in %; for cell viability (kinase inhibitor library screening): 501Mel GP, 72 h.
The test system of a further test is A375 cells (parental). As to conditions: for cell viability (kinase inhibitor library screening): A375 Parental, 72 h.
The subject of another test is IGR37 cells (parental). As to conditions: for Cell viability in kinase inhibitor library screening, IGR37 Parental, 1μΜ / Cell viability in kinase inhibitor library screening, IGR37 Parental, 10μΜ: in %; for cell viability (kinase inhibitor library screening): IGR37 Parental, 72 h.
For test [6], the system named is IGR37-XP cells (Vemurafenib-resistant). As to conditions: for Cell viability in kinase inhibitor library screening, IGR37 XP, 1μΜ: in %; for cell viability (kinase inhibitor library screening): IGR37 XP, 72 h.

For `CC(=O)Nc1nc(C)c(-c2ccc(Cl)c(S(=O)(=O)NCCO)c2)s1` [PIK-93], in test [1], the “Cell viability in kinase inhibitor library screening, A375 XP, 1μΜ” value amounted to 88.7 and the “Cell viability in kinase inhibitor library screening, A375 XP, 10μΜ” value is reported as 36.0. Moreover, in test [2], the “Cell viability in kinase inhibitor library screening, 501Mel XP, 1μΜ” value came to 90.7 and the “Cell viability in kinase inhibitor library screening, 501Mel XP, 10μΜ” value was 10.6. Also, in the test on 501Mel cells (parental), the “Cell viability in kinase inhibitor library screening, 501Mel Parental, 1μΜ” value was 88.1 and the “Cell viability in kinase inhibitor library screening, 501Mel Parental, 10μΜ” value is reported as 25.0. In addition, in [3], the “Cell viability in kinase inhibitor library screening, A375 GP, 1μΜ” value is listed as 97.8 and the “Cell viability in kinase inhibitor library screening, A375 GP, 10μΜ” value is reported as 37.8. Moreover, in test [4], the Cell viability in kinase inhibitor library screening, IGR37 GP, 10μΜ is 59.9% and the “Cell viability in kinase inhibitor library screening, IGR37 GP, 1μΜ” value is reported as 91.0. For the same compound, in test [5], the “Cell viability in kinase inhibitor library screening, 501Mel GP, 1μΜ” value turned out to be 98.2 and the “Cell viability in kinase inhibitor library screening, 501Mel GP, 10μΜ” value was 25.1. In the test with A375 cells (parental), the “Cell viability in kinase inhibitor library screening, A375 Parental, 1μΜ” value came out at 97.3 and the “Cell viability in kinase inhibitor library screening, A375 Parental, 10μΜ” value is listed as 47.7. In addition, in the test on IGR37 cells (parental), the “Cell viability in kinase inhibitor library screening, IGR37 Parental, 1μΜ” value worked out at 96.9 and the “Cell viability in kinase inhibitor library screening, IGR37 Parental, 10μΜ” value came to 72.6. In addition, in test [6], the Cell viability in kinase inhibitor library screening, IGR37 XP, 10μΜ amounted to 27.5% and the “Cell viability in kinase inhibitor library screening, IGR37 XP, 1μΜ” value was 84.1.
Consider `CNC(=O)c1cc(Oc2ccc(NC(=O)Nc3cc(C(C)(C)C)nn3-c3ccc4ncccc4c3)c(F)c2)ccn1` [DCC-2036 (Rebastinib)], for which the “cell viability (kinase inhibitor library screening)” value in test [1] (1μΜ) was determined as 76.3%; in test [1] (10μΜ), 2.5%; in test [2] (1μΜ), 102.9%; in [2] (10μΜ) it was 0.261%; in the test on 501Mel cells (parental) (1μΜ), 81.5%; in the test on 501Mel cells (parental) (10μΜ), 2.8%. Besides, the “cell viability (kinase inhibitor library screening)” value was found to be 96.7% in [3] (1μΜ); 3.6% in test [3] (10μΜ); 8.3% in test [4] (IGR37 GP, 10μΜ, 72 h); 100.3% in test [5] (1μΜ); 2.0% in test [5] (10μΜ); 1.8% in the test with A375 cells (parental) (10μΜ). Also, the “cell viability (kinase inhibitor library screening)” value was 55.4% in the test with A375 cells (parental) (1μΜ); 67.0% in the test with IGR37 cells (parental) (1μΜ); 20.7% in the test with IGR37 cells (parental) (10μΜ); 107.3% in [6] (1μΜ); 2.4% in test [6] (10μΜ).
On to `COc1ccc(S(=O)(=O)N(C(C)=O)c2ccccc2/C=C/c2cc[n+]([O-])cc2)cc1` [HMN-214], for which, in test [1], the “Cell viability in kinase inhibitor library screening, A375 XP, 1μΜ” value is 37.9 and the “Cell viability in kinase inhibitor library screening, A375 XP, 10μΜ” value worked out at 18.1. Further, in test [2], the “Cell viability in kinase inhibitor library screening, 501Mel XP, 1μΜ” value came out at 14.9 and the “Cell viability in kinase inhibitor library screening, 501Mel XP, 10μΜ” value stood at 12.4. Further, in the test on 501Mel cells (parental), the “Cell viability in kinase inhibitor library screening, 501Mel Parental, 1μΜ” value worked out at 17.6 and the “Cell viability in kinase inhibitor library screening, 501Mel Parental, 10μΜ” value turned out to be 20.7. In addition, in [3], the “Cell viability in kinase inhibitor library screening, A375 GP, 1μΜ” value is 42.6 and the “Cell viability in kinase inhibitor library screening, A375 GP, 10μΜ” value stood at 20.9. In test [4], the Cell viability in kinase inhibitor library screening, IGR37 GP, 10μΜ is 66.9% and the “Cell viability in kinase inhibitor library screening, IGR37 GP, 1μΜ” value was found to be 69.1. In addition, in [5], the “Cell viability in kinase inhibitor library screening, 501Mel GP, 1μΜ” value is given as 21.4 and the “Cell viability in kinase inhibitor library screening, 501Mel GP, 10μΜ” value is recorded as 22.7. In the test on A375 cells (parental), the “Cell viability in kinase inhibitor library screening, A375 Parental, 1μΜ” value amounted to 34.0 and the “Cell viability in kinase inhibitor library screening, A375 Parental, 10μΜ” value amounted to 23.3. In the test with IGR37 cells (parental), the “Cell viability in kinase inhibitor library screening, IGR37 Parental, 1μΜ” value was found to be 19.8 and the “Cell viability in kinase inhibitor library screening, IGR37 Parental, 10μΜ” value was determined as 16.1. Moreover, in [6], the Cell viability in kinase inhibitor library screening, IGR37 XP, 10μΜ was found to be 28.3% and the “Cell viability in kinase inhibitor library screening, IGR37 XP, 1μΜ” value was 57.1.

Source of the values: publication PMC6364417, “Kinase inhibitor library screening identifies synergistic drug combinations effective in sensitive and resistant melanoma cells” (Journal of Experimental & Clinical Cancer Research : CR, 2019).
